Target: T1, TrkA (Homo sapiens, UniProt P04629)
T1 construct: purchased Invitrogen PV3144
Assay: TrkA kinase inhibition, HTRF assay
Format: biochemical
Conditions: LCK peptide substrate 125 nM, TrkA 2-10 nM pre-incubated with ATP 200 μM
Method in brief: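 TrkA (2-10 nM) preactivated 20 min with 200 μM ATP in HEPES pH 7.4 with Mg2+/Mn2+, then compound for 10 min, then 125 nM biotinylated LCK-peptide for 1 h at ambient temperature. HTRF 665/620 ratio read; IC50 fitted from initial-rate percent inhibition.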

T1 sequence (P04629 33-796): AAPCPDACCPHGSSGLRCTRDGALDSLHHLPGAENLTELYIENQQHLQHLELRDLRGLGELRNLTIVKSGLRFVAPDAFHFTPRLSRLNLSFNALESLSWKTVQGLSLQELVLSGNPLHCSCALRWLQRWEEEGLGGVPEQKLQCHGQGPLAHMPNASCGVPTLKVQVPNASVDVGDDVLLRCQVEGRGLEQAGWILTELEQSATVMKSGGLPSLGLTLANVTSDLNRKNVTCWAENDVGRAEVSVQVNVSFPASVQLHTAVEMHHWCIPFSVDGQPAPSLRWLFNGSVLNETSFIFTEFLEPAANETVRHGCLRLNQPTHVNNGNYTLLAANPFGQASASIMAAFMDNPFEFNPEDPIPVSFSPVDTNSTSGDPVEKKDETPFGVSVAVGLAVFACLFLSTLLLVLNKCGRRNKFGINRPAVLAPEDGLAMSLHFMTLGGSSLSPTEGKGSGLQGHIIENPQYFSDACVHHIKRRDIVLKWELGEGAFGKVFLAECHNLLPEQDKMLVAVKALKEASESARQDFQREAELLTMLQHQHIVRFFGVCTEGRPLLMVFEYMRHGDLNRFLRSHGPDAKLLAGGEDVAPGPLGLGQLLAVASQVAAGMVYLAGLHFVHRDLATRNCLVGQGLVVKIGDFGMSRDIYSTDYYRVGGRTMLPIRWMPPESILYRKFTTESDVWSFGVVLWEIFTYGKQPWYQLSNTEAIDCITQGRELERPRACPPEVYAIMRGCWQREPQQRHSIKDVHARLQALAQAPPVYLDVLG

Structure (SMILES)	IC50 [µM]
CC(=O)Nc1ccc(-c2cc(OC3CCOCC3)c3c(C)n[nH]c3c2)cc1OCCNC(=O)OC(C)C [Example 147, isopropyl (2-{2-acetamido-5-[3-methyl-4-(tetrahydro-2H-pyran-4-yloxy)-1H-indazol-6-yl]phenoxy}ethyl)carbamate]	0.0309
NC(=O)c1ccc(-c2cc(OC3CCOCC3)c3c(N)n[nH]c3c2)cc1N1CCN(CCCO)CC1 [Example 7, 4-[3-amino-4-(tetrahydro-2H-pyran-4-yloxy)-1H-indazol-6-yl]-2-[4-(3-hydroxypropyl)piperazin-1-yl]benzamide]	0.706
CC(=O)Nc1ccc(-c2cc(OC3CCOCC3)c3c(C)n[nH]c3c2)cc1N1CCN(Cc2cccc(F)c2)CC1 [Example 149, N-{2-[4-(3-fluorobenzyl)piperazin-1-yl]-4-[3-methyl-4-(tetrahydro-2H-pyran-4-yloxy)-1H-indazol-6-yl]phenyl}acetamide]	0.025
Cc1n[nH]c2cc(-c3ccc(C(N)=O)c(N4CCN(CC(F)(F)F)CC4)c3)cc(OC3CCOCC3)c12 [Example 157, 4-[3-methyl-4-(tetrahydro-2H-pyran-4-yloxy)-1H-indazol-6-yl]-2-[4-(2,2,2-trifluoroethyl)piperazin-1-yl]benzamide]	0.0227
CC(C)(C)C(=O)N1CCN(c2cc(-c3cc(OC4CCOCC4)c4c(N)n[nH]c4c3)ccc2C(=O)NC2CC2)CC1 [Example 25, 4-[3-amino-4-(tetrahydro-2H-pyran-4-yloxy)-1H-indazol-6-yl]-N-cyclopropyl-2-[4-(2,2-dimethylpropanoyl)piperazin-1-yl]benzamide]	0.188
CC(=O)N1CCN(c2cc(-c3cc(OC4CCOCC4)c4c(N)n[nH]c4c3)ccc2C(N)=O)CC1 [Example 4, 2-(4-acetylpiperazin-1-yl)-4-[3-amino-4-(tetrahydro-2H-pyran-4-yloxy)-1H-indazol-6-yl]benzamide]	0.147
Cc1n[nH]c2cc(-c3ccc(C(N)=O)c(N4CCN(C(=O)OC(C)C)CC4)c3)cc(OC3CCOCC3)c12 [Example 142, isopropyl 4-{2-carbamoyl-5-[3-methyl-4-(tetrahydro-2H-pyran-4-yloxy)-1H-indazol-6-yl]phenyl}piperazine-1-carboxylate]	0.0232
CC(=O)Nc1ccc(-c2cc(OC3CCCC3)c3c(C)n[nH]c3c2)cc1NCCOc1ccccc1 [Example 127, N-{4-[4-(cyclopentyloxy)-3-methyl-1H-indazol-6-yl]-2-[(2-phenoxyethyl)amino]phenyl}acetamide]	0.049
CNC(=O)c1ccc(-c2cc(OC3CCOCC3)c3c(C)n[nH]c3c2)cc1N1CCN(C(=O)NC(C)C)CC1 [Example 155, N-isopropyl-4-{2-(methylcarbamoyl)-5-[3-methyl-4-(tetrahydro-2H-pyran-4-yloxy)-1H-indazol-6-yl]phenyl}piperazine-1-carboxamide]	0.00227
CCCOC(=O)N1CCN(c2cc(-c3cc(OC4CCOCC4)c4c(C)n[nH]c4c3)ccc2C(=O)NC)CC1 [Example 135, propyl 4-{2-(methylcarbamoyl)-5-[3-methyl-4-(tetrahydro-2H-pyran-4-yloxy)-1H-indazol-6-yl]phenyl}piperazine-1-carboxylate]	0.00829
Cc1n[nH]c2cc(-c3ccc(C#N)c(N4CCN(C(=O)OC(C)(C)C)CC4)c3)cc(OC3CCOCC3)c12 [Example 139, tert-butyl 4-{2-cyano-5-[3-methyl-4-(tetrahydro-2H-pyran-4-yloxy)-1H-indazol-6-yl]phenyl}piperazine-1-carboxylate]	0.00686

More lines, now with the values ahead:

IC50 [µM]	Structure (SMILES)
0.00748	CNC(=O)c1ccc(-c2cc(OC3CCOCC3)c3c(C)n[nH]c3c2)cc1N1CCN(S(=O)(=O)c2ccc(C)cc2)CC1 [Example 152, N-methyl-2-{4-[(4-methylphenyl)sulfonyl]piperazin-1-yl}-4-[3-methyl-4-(tetrahydro-2H-pyran-4-yloxy)-1H-indazol-6-yl]benzamide]
0.0433	NC(=O)c1ccc(-c2ccc3c(N)n[nH]c3c2)cc1N1CCN(Cc2ccccc2)CC1 [Example 87, 4-(3-amino-1H-indazol-6-yl)-2-(4-benzylpiperazin-1-yl)benzamide]
0.223	CNC(=O)c1ccc(-c2cc(O[C@H](C)C(F)(F)F)c3c(N)n[nH]c3c2)cc1N1CCC(O)(c2ccccc2)CC1 [Example 60, 4-(3-amino-4-{[(2R)-1,1,1-trifluoropropan-2-yl]oxy}-1H-indazol-6-yl)-2-(4-hydroxy-4-phenylpiperidin-1-yl)-N-methylbenzamide]
0.00806	NC(=O)c1ccc(-c2cc(O[C@@H]3CCOC3)c3c(N)n[nH]c3c2)cc1N1CCN(c2cccnc2)CC1 [Example 68, 4-{3-amino-4-[(3R)-tetrahydrofuran-3-yloxy]-1H-indazol-6-yl}-2-[4-(pyridin-3-yl)piperazin-1-yl]benzamide]
0.227	NC(=O)c1ccc(-c2ccc3c(N)n[nH]c3c2)cc1N1CCN(c2cccnc2)CC1 [Example 90, 4-(3-amino-1H-indazol-6-yl)-2-[4-(pyridin-3-yl)piperazin-1-yl]benzamide]
0.0258	CNC(=O)c1ccc(-c2cc(OC(C)C(F)(F)F)c3c(N)n[nH]c3c2)cc1N1CCN(c2cccnc2)CC1 (centres unmarked) [Example 36, 4-{3-amino-4-[(1,1,1-trifluoropropan-2-yl)oxy]-1H-indazol-6-yl}-N-methyl-2-[4-(pyridin-3-yl)piperazin-1-yl]benzamide]
0.0385	CNC(=O)c1ccc(-c2cc(O[C@H](C)C(F)(F)F)c3c(N)n[nH]c3c2)cc1N1CCN(c2ccccc2)CC1 [Example 48, 4-(3-amino-4-{[(2R)-1,1,1-trifluoropropan-2-yl]oxy}-1H-indazol-6-yl)-N-methyl-2-(4-phenylpiperazin-1-yl)benzamide]
0.0714	CNC(=O)c1ccc(-c2cc(O[C@@H](C)C(F)(F)F)c3c(N)n[nH]c3c2)cc1N1CCN(CCC(C)(C)C)CC1 [Example 40, 4-(3-amino-4-{[(2S)-1,1,1-trifluoropropan-2-yl]oxy}-1H-indazol-6-yl)-2-[4-(3,3-dimethylbutyl)piperazin-1-yl]-N-methylbenzamide]
0.00241	CC(Oc1cc(-c2ccc(C(N)=O)c(N3CCN(c4ccccn4)CC3)c2)cc2[nH]nc(N)c12)C(F)(F)F (centres unmarked) [Example 94, 4-{3-amino-4-[(1,1,1-trifluoropropan-2-yl)oxy]-1H-indazol-6-yl}-2-[4-(pyridin-2-yl)piperazin-1-yl]benzamide]
0.0134	CC(=O)c1ccc(-c2cc(OC3CCOCC3)c3c(N)n[nH]c3c2)cc1N1CCN(c2ccc(F)cc2)CC1 [Example 17, 1-{4-[3-amino-4-(tetrahydro-2H-pyran-4-yloxy)-1H-indazol-6-yl]-2-[4-(4-fluorophenyl)piperazin-1-yl]phenyl}ethanone]
0.0898	CC(Oc1cc(-c2ccc(C(N)=O)c(N3CCN(CCN4CCOCC4)CC3)c2)cc2[nH]nc(N)c12)C(F)(F)F (centres unmarked) [Example 95, 4-{3-amino-4-[(1,1,1-trifluoropropan-2-yl)oxy]-1H-indazol-6-yl}-2-{4-[2-(morpholin-4-yl)ethyl]piperazin-1-yl}benzamide]
0.254	CC(O)c1ccc(-c2cc(OC3CCOCC3)c3c(N)n[nH]c3c2)cc1N1CCN(c2cccnc2)CC1 (centres unmarked) [Example 22, 1-{4-[3-amino-4-(tetrahydro-2H-pyran-4-yloxy)-1H-indazol-6-yl]-2-[4-(pyridin-3-yl)piperazin-1-yl]phenyl}ethanol]

Source: patent US20160376240A1, “6 Phenyl or 6 Pyridin 3 YL Indazole Derivatives and Methods of Use” (ABBVIE INC., priority 2014, published 2016)
